# Data published in US20090042783A1, “APO E ANALOGS AND METHODS FOR THEIR USE” (priority 2004, published 2009).
# Non-standard residues stand in square brackets, D forms with d. Residues, ends and D or L forms follow the SMILES beside them. Aib = CC(C)(N)C(=O)O
# Key:
# [1] = Maximum tolerated dose, tail vein injection; settings: mouse, in vivo, intravenous, highest dose with death of no mice in 24 hours, tail vein
# Procedure: (§1) Candidate compounds are then be screened in our closed head injury model of traumatic brain injury by intravenous dosing at 30 minutes post injury. Novel compounds are initially tested at one half their maximum tolerated dose (0.5×MTD). The maximum tolerated dose (MTD) is the dose of peptide given in a tail vein injection that results in no death of mice. Death is defined as a complete lack of breathing and complete unresponsiveness to external stimuli such as tail pinch and/or toe pinch for a period of 10 or more minutes. Animals are given an initial dose of 1 mg/kg of peptide analog or non-peptide mimetic and observed continuously for 15 minutes and then at 15 minute intervals for 2 hours and then at 1 hour intervals for 4 hours more. Animals are also observed at 24 hours post injection.
# (§2) The maximum tolerated dose is the maximum dose at which no animals die at any of these observation times. As an example of this procedure, the MTD is determined empirically by initially dosing groups of 3 mice at 1 mg/kg. If this dose is tolerated, then another group of 3 mice is dosed at 3 mg/kg. If this dose is tolerated, then another group of 3 mice is dosed at 9 mg/kg, etc. If, for example, 9 mg/kg is not tolerated because 1 or more animal died, then doses in-between 3 mg/kg and 9 mg/kg are investigated until the MTD is found. Once the MTD is empirically determined, it is confirmed in another group of 7 mice for a total of 10 mice being tested at the MTD and all of which must not die to confirm that this is the MTD.
# mice = assay: Maximum tolerated dose, tail vein injection; settings: mouse, in vivo
# Procedure: as §1, §2
# RAW 264.7 macrophages [2] = assay: NO production and iNOS mRNA in C. rodentium-stimulated macrophages; type: cell-based, mouse; settings: C. rodentium lysates; COG1410 2 μM, COG4502 0.1-5 μM
# Source text: RAW 264.7 cells were stimulated with French-pressed lysates of C. rodentium at a multiplicity of infection of 100. […] B, RT-PCR for iNOS.
# We used bacterial lysates to more closely mimic the bacterial products to which lamina propria macrophages are likely to be exposed.
# [3] = mouse, in vivo
# Source text: We have employed a similar LC/MS procedure to identify fragments of COG1410 that may arise by degradation processes.
# RAW 264.7 macrophages [4] = test system: RAW 264.7 macrophages
# in vivo = settings: male, C57B1/6, mouse, 0.4 mg/kg
# [5] = test system: mice with traumatic brain injury; assay: Closed head injury model of traumatic brain injury (rotorod, Morris Water Maze)
# Procedure: C57Bl/6J male mice (The Jackson Laboratory, ME), 12-16 weeks of age and weighing 24-32 g, are used for all experiments. Anesthesia is first induced with isoflurane in 30% O2/balance N2. The trachea is intubated and the lungs mechanically ventilated with 1.6% isoflurane in 30% O2/balance N2. Temperature is monitored with a rectal probe and maintained at 36.5° C. with a heat lamp. The right internal jugular vein is cannulated with silicone catheter. […] Intubated animals are then placed prone on a molded acrylic cast (FIG. 6A). […] The scalp is incised and the skull exposed. A concave 3 mm metallic disc is secured to the skull surface (with the concave surface in juxtaposition to the skull) by an adhesive. […] The disc is placed directly midline just caudal to bregma (FIG. 6B). […] The mice are positioned in a stereotactic frame. Although the stereotactactic frame helps to stabilize the animal and exactly calibrate the vertical displacement on impact (3 mm), ear bars are not used due to a much higher rate of skull fracture (or brainstem injury if the head rotates around the axis of the ear bars during impact). The piston is discharged at 6.8±0.2 m/s so as to impact the skull in the acrylic mold to move a maximum of approximately 3 mm (FIG. 6C). Inspired isoflurane is decreased to 0.7% immediately after impact. The scalp was infiltrated with lidocaine and closed with suture. Ophthalmic ointment was applied to the eyes for protection. The incidence of skull fracture is low (approximately 10%), as the metal disk helps to diffuse the impact, and the absence of ear bar fixation allows for displacement of the entire head. Mice were excluded if a depressed skull fracture was observed (incidence of approximately 10%). The animals are allowed to recover spontaneous ventilation then extubated. […] In these mice, arterial blood pressure, blood gas and glucose measurement at baseline, immediately after injury, and 15 minutes after injury are monitored during the recovery period.
# Briefly, baseline performance on rotorod is established before the mice are intubated, the skin over the scalp reflected and a controlled cortical impact from a pneumatic impactor given on the midline. The skin is closed with surgical clips and the animals are constantly monitored until awake from anesthesia and then hourly for the next 4 hours. […] Performance on rotorod is tested at 24 hours post impaction and then every day for 5 days and data is presented as described. Groups of 12 mice are used for each compound at 0.5×MTD. […] Novel peptides and non-peptide analogs are also given by tail vein injection.
# Daily Rotarod (RR) testing was used to assess short term motor and cerebellar deficit following head injury (Hamm et al., 1994). Mice were held by their tails and placed on the RR facing the wall by using gentle swinging motion while running in a constant speed mode.
smiles,measurement,setting,value
"CC(=O)N[C@@H](C)C(=O)N[C@@H](CO)C(=O)NC(C)(C)C(=O)N[C@@H](CC(C)C)C(=O)N[C@@H](CCCNC(=N)N)C(=O)N[C@@H](CCCCN)C(=O)N[C@@H](CC(C)C)C(=O)NC(C)(C)C(=O)N[C@@H](CCCCN)C(=O)N[C@@H](CCCNC(=N)N)C(=O)N[C@@H](CC(C)C)C(=O)N[C@@H](CC(C)C)C(N)=O [COG1410, Ac-AS-Aib-LRKL-Aib-KRLL-NH2] (Ac-AS[Aib]LRKL[Aib]KRLL-NH2)",Biologic Activity relative to COG133,"BV2 microglial cells; Table 2, preliminary data",>5x x COG133
same,IC50,"BV2 microglial cells; read-out: IC50, inhibition of nitric oxide release, BV2 cells, LPS for 40 hours, approximate",~2 µM
same,MTD at 24 h,[1],8 mg/kg
same,Therapeutic Index (ratio of the MTD to the MED),mice,26
same,NO production (nitrite levels) in macrophage supernatants,RAW 264.7 macrophages [2],inhibition of NO production
same,Major metabolite in plasma,[3],acetyl-AS-Aib-LRKL-Aib-KR
same,Concentration at which cell toxicity was noted,RAW 264.7 macrophages [4],≥ 5 µM
same,half-life,in vivo,2 min
same,Neuroprotection (rotorod) when administered 120 minutes after TBI,"[5]; 120 minutes after TBI, vs saline",neuroprotective
same,Minimum effective dose (MED),"[5]; lowest dose with statistically significant improvement vs vehicle, preliminary",0.3 mg/kg
same,Gain in therapeutic window as compared to COG133,"[5]; mouse, in vivo",4 fold
